Data as given in the NIST ThermoML archive (doi:10.1016/j.jct.2015.07.042).
± gives the expanded uncertainty stated by the source.

Assay: activity coefficient (dimensionless); of the first substance listed, at infinite dilution; xn = mol fraction of the nth substance listed
Conditions: 101 kPa, Liquid, Chromatography, x1 = 0

CCC(C)(C)OC [2-methoxy-2-methylbutane] + CCCCn1cc[n+](C)c1.[Cl-]
activity coefficient (358.15 K): 34 ± 2.3
activity coefficient (368.15 K): 33.1 ± 2.3
activity coefficient (378.15 K): 32.2 ± 2.2
activity coefficient (388.15 K): 32.1 ± 2.2

CC(C)(C)O [2-methylpropan-2-ol] + CCCCn1cc[n+](C)c1.[Cl-]
activity coefficient (398.15 K): 0.987 ± 0.062
activity coefficient (408.15 K): 1.07 ± 0.067
activity coefficient (418.15 K): 1.16 ± 0.074
activity coefficient (428.15 K): 1.27 ± 0.082

C#CCCCCCC [1-octyne] + CCCCn1cc[n+](C)c1.COP(=O)([O-])OC
activity coefficient (358.15 K): 6.04 ± 0.41
activity coefficient (368.15 K): 6.22 ± 0.42
activity coefficient (378.15 K): 6.48 ± 0.44
activity coefficient (388.15 K): 6.74 ± 0.46

CCCC(=O)OC [methyl butanoate] + CCCCn1cc[n+](C)c1.[Cl-]
activity coefficient (358.15 K): 12.3 ± 0.84
activity coefficient (368.15 K): 12.4 ± 0.85
activity coefficient (378.15 K): 12.6 ± 0.86
activity coefficient (388.15 K): 12.7 ± 0.87

C1CCCC1 [cyclopentane] + CCCCn1cc[n+](C)c1.COP(=O)([O-])OC
activity coefficient (358.15 K): 8.76 ± 0.6
activity coefficient (368.15 K): 8.59 ± 0.59
activity coefficient (378.15 K): 8.41 ± 0.57
activity coefficient (388.15 K): 8.33 ± 0.57

Cc1ccc(C)cc1 [1,4-dimethylbenzene] + CCCCn1cc[n+](C)c1.CS(=O)(=O)[O-]
activity coefficient (358.15 K): 9.03 ± 0.62
activity coefficient (368.15 K): 9.2 ± 0.63
activity coefficient (378.15 K): 9.37 ± 0.64
activity coefficient (388.15 K): 9.71 ± 0.66

Cc1ccccc1C [1,2-dimethylbenzene] + CCCCn1cc[n+](C)c1.[Cl-]
activity coefficient (358.15 K): 11.6 ± 0.79
activity coefficient (368.15 K): 11.7 ± 0.8
activity coefficient (378.15 K): 11.9 ± 0.81
activity coefficient (388.15 K): 12.3 ± 0.84

CC(C)CO [2-methyl-1-propanol] + CCCCn1cc[n+](C)c1.CS(=O)(=O)[O-]
activity coefficient (398.15 K): 0.893 ± 0.057
activity coefficient (408.15 K): 0.938 ± 0.059
activity coefficient (418.15 K): 0.991 ± 0.062
activity coefficient (428.15 K): 1.04 ± 0.066

c1ccccc1 [benzene] + CCCCn1cc[n+](C)c1.[Cl-]
activity coefficient (358.15 K): 4.51 ± 0.31
activity coefficient (368.15 K): 4.59 ± 0.31
activity coefficient (378.15 K): 4.72 ± 0.32
activity coefficient (388.15 K): 4.82 ± 0.33

CCCO [propan-1-ol] + CCCCn1cc[n+](C)c1.[Cl-]
activity coefficient (398.15 K): 0.408 ± 0.034
activity coefficient (408.15 K): 0.434 ± 0.035
activity coefficient (418.15 K): 0.464 ± 0.036
activity coefficient (428.15 K): 0.501 ± 0.038

CC#N [acetonitrile] + CCCCn1cc[n+](C)c1.[Cl-]
activity coefficient (358.15 K): 1.12 ± 0.07
activity coefficient (368.15 K): 1.16 ± 0.07
activity coefficient (378.15 K): 1.21 ± 0.08
activity coefficient (388.15 K): 1.28 ± 0.08

CC(C)(C)O [2-methylpropan-2-ol] + CCCCn1cc[n+](C)c1.CS(=O)(=O)[O-]
activity coefficient (398.15 K): 1.28 ± 0.083
activity coefficient (408.15 K): 1.39 ± 0.09
activity coefficient (418.15 K): 1.48 ± 0.098
activity coefficient (428.15 K): 1.59 ± 0.11

CCCO [propan-1-ol] + CCCCn1cc[n+](C)c1.COP(=O)([O-])OC
activity coefficient (398.15 K): 0.197 ± 0.029
activity coefficient (408.15 K): 0.218 ± 0.029
activity coefficient (418.15 K): 0.239 ± 0.029
activity coefficient (428.15 K): 0.264 ± 0.03

CCC[N+](=O)[O-] [1-nitropropane] + CCCCn1cc[n+](C)c1.COP(=O)([O-])OC
activity coefficient (358.15 K): 1.5 ± 0.1
activity coefficient (368.15 K): 1.56 ± 0.1
activity coefficient (378.15 K): 1.62 ± 0.11
activity coefficient (388.15 K): 1.72 ± 0.12

CC(C)OC(C)C [diisopropyl ether] + CCCCn1cc[n+](C)c1.CS(=O)(=O)[O-]
activity coefficient (358.15 K): 40.6 ± 2.8
activity coefficient (378.15 K): 40.8 ± 2.8
activity coefficient (388.15 K): 41.2 ± 2.8

c1ccsc1 [thiophene] + CCCCn1cc[n+](C)c1.COP(=O)([O-])OC
activity coefficient (358.15 K): 1.24 ± 0.08
activity coefficient (368.15 K): 1.35 ± 0.09
activity coefficient (378.15 K): 1.43 ± 0.09
activity coefficient (388.15 K): 1.53 ± 0.1

CCO [ethanol] + CCCCn1cc[n+](C)c1.[Cl-]
activity coefficient (398.15 K): 0.297 ± 0.031
activity coefficient (408.15 K): 0.313 ± 0.031
activity coefficient (418.15 K): 0.332 ± 0.032
activity coefficient (428.15 K): 0.353 ± 0.032

C=CCCCCC [1-heptene] + CCCCn1cc[n+](C)c1.COP(=O)([O-])OC
activity coefficient (358.15 K): 19.6 ± 1.3
activity coefficient (368.15 K): 19.4 ± 1.3
activity coefficient (378.15 K): 19.1 ± 1.3
activity coefficient (388.15 K): 18.9 ± 1.3

C=CCCCCC [1-heptene] + CCCCn1cc[n+](C)c1.[Cl-]
activity coefficient (358.15 K): 88.9 ± 6.1
activity coefficient (368.15 K): 83.8 ± 5.7
activity coefficient (378.15 K): 79.3 ± 5.4
activity coefficient (388.15 K): 77.2 ± 5.3

C1COCCO1 [1,4-dioxane] + CCCCn1cc[n+](C)c1.CS(=O)(=O)[O-]
activity coefficient (358.15 K): 2.33 ± 0.16
activity coefficient (368.15 K): 2.41 ± 0.16
activity coefficient (378.15 K): 2.49 ± 0.17
activity coefficient (388.15 K): 2.62 ± 0.18

C1CCCCC1 [cyclohexane] + CCCCn1cc[n+](C)c1.[Cl-]
activity coefficient (358.15 K): 84.2 ± 5.8
activity coefficient (368.15 K): 79 ± 5.4
activity coefficient (378.15 K): 73 ± 5
activity coefficient (388.15 K): 69.8 ± 4.8

CCOC(C)(C)C [2-ethoxy-2-methylpropane] + CCCCn1cc[n+](C)c1.[Cl-]
activity coefficient (358.15 K): 64.8 ± 4.4
activity coefficient (368.15 K): 59.3 ± 4.1
activity coefficient (378.15 K): 55.7 ± 3.8
activity coefficient (388.15 K): 53.3 ± 3.6

CO [methanol] + CCCCn1cc[n+](C)c1.COP(=O)([O-])OC
activity coefficient (398.15 K): 0.097 ± 0.03
activity coefficient (408.15 K): 0.105 ± 0.03
activity coefficient (418.15 K): 0.115 ± 0.03
activity coefficient (428.15 K): 0.125 ± 0.03

CO [methanol] + CCCCn1cc[n+](C)c1.CS(=O)(=O)[O-]
activity coefficient (398.15 K): 0.325 ± 0.032
activity coefficient (408.15 K): 0.34 ± 0.032
activity coefficient (418.15 K): 0.357 ± 0.033
activity coefficient (428.15 K): 0.373 ± 0.033
